In patent publication US7943309B2, “HLA alleles associated with adverse drug reactions and methods for detecting such” (Pharmigene Inc., priority 2006, dated 2011):
Values joined by “and” are separate entries in the source; they are usually repeats but may differ in a detail not shown here. Identical values can stand only once. Values belong to the molecule of their own block, whether it stands above or below them.

Assays:
CBZ-reactive T cells = assay: Cross-reactivity of CBZ-reactive T cells (interferon-γ ELISPOT); assay type: cell-based, human; settings: T cells of HLA-B*1502 patients with CBZ-induced SJS/TEN, autologous B cells, 24 hours
From the text: Two patients having CBZ-induced SJS/TEN were recruited from Chang Gung Memorial Hospital. […] Genomic DNAs were extracted from the patients using […] DNA purification system (Gentra systems, Minnesota, USA). The HLA-B alleles were verified using sequence-specific oligonucleotide reverse line blots (DYNAL Biotech Ltd., Bromborough, U.K.).
Peripheral blood mononuclear cells (PBMCs) were isolated from the patients by Ficoll-Isopaque (Pharmacia Fine Chemicals, Piscataway, N.J.) density gradient centrifugation. A portion of the PBMCs were transformed by Epstein-Bar virus to establish autologous B-cell lines.
T cells reactive to CBZ were expanded as described below. PBMCs prepared from the patients were cultured in complete RPMI medium containing 10% heat-inactivated human serum, IL-2 (25 U/ml), and CBZ (25 μg/ml)(Sigma) in a 37° C., 5% CO2 incubator for 7 days. The T cells were then expanded by co-culturing with irradiated (50Gy) autologous B cells in the presence of CBZ for 10 days. After 2 cycles of the above co-culturing procedure, the CBZ-activated T cells were collected and subjected to ELISPOT assays (eBioscience).
The CBZ-reactive T cells were tested for their cross-reactivity to compounds e.g., CBZ 10, 11-epoxide, Oxcarbazepine (brand name: trileptal), Licarbazepine, and sunlindac. Briefly, T lymphocytes (5×10^3 cells) were mixed with autologous B cells (5×10^4 cells) in 200 μl RPMI medium containing 10% FBS in the presence or absence of a test compound. The cells were then incubated for 24 hours in the wells of an ELISPOT plate coated with anti-interferon γ antibodies (Millipore). After incubation, the supernatant of the cell culture was collected and interferon-γ contained therein was detected using antibody-mediated methods known in the art.

HLA-Cw*0801 = assay: Marker of B*1502 ancestral haplotype and ADRs: HLA-Cw*0801
From the text: (§1) All of these patients were subjected to genotyping. Briefly, reagents for performing a reverse line blot assay using sequence-specific oligonucleotide (SSO) were purchased from DYNAL Biotech Ltd. (Bromborough, UK). PCR products were generated using biotinylated primers for the second and the third exons of the HLA class I or class II loci, and then hybridized to a line blot of SSO of probes immobilized on a nylon membrane. The presence of biotinylated PCR product bound to a specific probe is detected using streptavidin-horseradish peroxidase (HRP) and a chromogenic, soluble substrate to produce a blue “line” at the position of the positive probe. The probe reactivity pattern was interpreted by the genotyping software Dynal RELI™ SSO (DYNAL Biotech Ltd.; Bromborough, UK). Potential ambiguities were further resolved by sequence-based typing and DNA sequencing performed according to the IHWG Technical Manual (International Histocompatibility Working Group), see Genomic Analysis of the Human MHC DNABased Typing for HLA Alleles and Linked Polymorphisms. Marcel G. J. Tilanus, Editor in Chief, ISBN No. 0-945278-02-0.

[1] = Clinical phenotype of drug-induced cutaneous ADR in individual patients; assay type: in vivo, human
Protocol: A total of 238 ADR patients (Mongoloids or Mongoloid descendents) were recruited either from Chang Gung Memorial Hospital or from several other medical centers throughout Taiwan for this study. Their drug-taking history including dosage and duration, and the phenotypes of ADRs were recorded. The diagnostic criteria of clinical morphology were defined according to Roujeau, J. Invest Dermatol., 102(6):28S-30S, 1994. […] SJS, overlap SJS-TEN and TEN are collectively referred to as SJS/TEN.

HLA-B*5801 = assay: Association of HLA-B*5801 with allopurinol-induced severe ADRs (HSS, SJS, TEN); settings: for B*5801 frequency, Allopurinol-tolerant: n = 98
Cw*0302 = settings: number (%)
DRB1*0301 = settings: number (%)
HLA-Cw*0806 = assay: Marker of B*1502 ancestral haplotype and ADRs: HLA-Cw*0806
From the text: as §1

HLA-B*1502 = assay: Association of HLA-B*1502 with drug-induced SJS/TEN (HLA genotyping, case-control); parameters: species or system human; settings: for number of HLA-B*1502-positive SJS/TEN patients who received the drug: among 17 carriers of 53 SJS/TEN patients who received other drugs
Protocol: 73 tegretol-tolerant patients were included as controls. […] All of these patients were subjected to genotyping. […] SSO (DYNAL Biotech Ltd.; Bromborough, UK). […] Marcel G. J. […] To some patients, SNP genotyping was performed using high throughput MALDI-TOF mass spectrometry. Briefly, primers and probes were designed using the Spectro[…] software (Sequenom, San Diego, Calif., USA). Multiplex polymerase chain reactions (PCR) were performed, the unincorporated dNTPs were dephosphorylated using the shrimp alkaline phosphatase (Hoffman-LaRoche, Basel, Switzerland), followed by primer extension. The purified primer extension reaction was spotted onto a 384-element silicon chip (SpectroCHIP, Sequenom), analyzed using a Bruker Biflex III MALDI-TOF SpectroREADER mass spectrometer (Sequenom) and spectra processed with […] (Sequenom).

A*3303 = settings: number (%)
[2] = Onset of allopurinol-induced ADR symptoms; assay type: in vivo, human
HLA-A*1101 = system: HLA-A*1101
From the text: as §1

HLA-DRB1*1202 = system: HLA-DRB1*1202
From the text: as §1

HLA-B*4601 = assay: Association of HLA-B*4601 with CBZ-induced milder cutaneous ADRs (HLA genotyping); parameters: species or system human
From the text: 73 tegretol-tolerant patients were included as controls. Volunteers from the general population of Taiwanese (n=94; age range: 20 to 80 years) were also recruited.
All of these patients were subjected to genotyping.
In contrast, the allele was only found in 26% (19/73) of the CBZ-tolerant group.

[3] = relative to the allopurinol-tolerant group

Molecule: NC(=O)N1c2ccccc2C2OC2c2ccccc21 (stereo not drawn) [CBZ 10, 11-epoxide]
cross-reactivity of CBZ-reactive T cells to the compound (CBZ-reactive T cells): cross-reactive

Molecule: NC(=O)N1c2ccccc2CC(=O)c2ccccc21 [Oxcarbazepine, 5H-Dibenz[b,f]azepine-5-carboxamide, 10,11-dihydro-10-oxo]
cross-reactivity of CBZ-reactive T cells to the compound (CBZ-reactive T cells): cross-reactive

Molecule: CC1=C(CC(=O)O)c2cc(F)ccc2/C1=C\c1ccc([S+](C)[O-])cc1 (stereo not drawn) [Sulindac]
cross-reactivity of CBZ-reactive T cells to the compound (CBZ-reactive T cells): not

HLA-Cw*0801 frequency, Allopurinol SJS/TEN (HLA-Cw*0801; n = 17, number (%)): 2 (11.7%) | Phenotype ([1]; individual patient, cutaneous ADR to the suspected drug, listed as Allopurinol): SJS | Phenotype ([1]; individual patient, cutaneous ADR to the suspected drug, listed as alloprinol): SJS | sensitivity of HLA-B*5801 for allopurinol-induced severe ADRs (HLA-B*5801): 100% | specificity of HLA-B*5801 for allopurinol-induced severe ADRs (HLA-B*5801): 84% | Odds ratio (Allopurinol-ADRs/Normal), B*5801 (HLA-B*5801; 31 ADR patients vs 93 normal subjects): 241 | B*5801 frequency, Allopurinol-ADRs (severe ADRs) (HLA-B*5801; n = 31, carriers, number (%)): 31 (100%) | Cw*0302 frequency, Allopurinol-ADRs (Cw*0302; n = 31): 29 (93.5%) | DRB1*0301 frequency, Allopurinol-ADRs (DRB1*0301; n = 31): 21 (67.7%) | HLA-Cw*0806 frequency, Allopurinol SJS/TEN (HLA-Cw*0806; n = 17, number (%)): 0 (0%) | number of HLA-B*1502-positive SJS/TEN patients who received the drug (HLA-B*1502): 2 | HLA-B*1502 frequency, Allopurinol SJS/TEN (HLA-B*1502; n = 17, carriers, number (%)): 1 (5.8%) | A*3303 frequency, Allopurinol-ADRs (A*3303; n = 31): 20 (64.5%) | second attack after re-exposure to allopurinol ([2]; 2 patients): ≤ 2 days | onset of HSS symptoms after start of allopurinol exposure ([2]; all of the 31 patients): ≤ 2 months
Molecule: Oc1ncnc2[nH]ncc12 [allopurinol, Allopurinol]
Phenotype ([1]; individual patient, cutaneous ADR to the suspected drug): SJS (11×) and SJS and vasculitis on leg and SJS, and lichenoid and TEN | Odds ratio (Allopurinol-ADRs/Tolerant), B*5801 (HLA-B*5801; 31 ADR patients vs 98 tolerant patients): 315 | B*5801 frequency, Allopurinol-tolerant (HLA-B*5801; carriers, number (%)): 16 (16.3%) | B*5801 frequency, Allopurinol-tolerant (HLA-B*5801; carriers, number (%), listed as Allopurinol): 16 (16.3%)^1 | negative predictive value, absence of HLA-B*5801, allopurinol-induced ADRs (HLA-B*5801; [3]): 100% | positive predictive value, presence of HLA-B*5801, allopurinol-induced ADRs (HLA-B*5801; [3]): 66% | Cw*0302 frequency, Allopurinol-tolerant (Cw*0302; n = 98): 15 (15.3%) | DRB1*0301 frequency, Allopurinol-tolerant (DRB1*0301; n = 98): 14 (14.3%) | A*3303 frequency, Allopurinol-tolerant (A*3303; n = 98): 18 (18.4%)

number of HLA-B*1502-positive SJS/TEN patients who received the drug (HLA-B*1502): 2
Molecule: CC1(C)S[C@@H]2[C@H](NC(=O)[C@H](N)c3ccc(O)cc3)C(=O)N2[C@H]1C(=O)O [amoxicillin]

Molecule: (S)-(−)-10-acetoxy-10,11- dihydro-5H-dibenzo/b,f/ azepine-5-carboxamide [Licarbazepine]
cross-reactivity of CBZ-reactive T cells to the compound (CBZ-reactive T cells): cross-reactive

Molecule: carbamazepine [CBZ]
HLA-Cw*0801 frequency, CBZ SJS/TEN (HLA-Cw*0801): 38 (90%) | HLA-Cw*0801 frequency, CBZ Tolerant (HLA-Cw*0801): 10 (13.7%) | Phenotype ([1]; human, in vivo): SJS | HLA-A*1101 frequency, CBZ SJS/TEN (HLA-A*1101): 31 (73.8%) | HLA-DRB1*1202 frequency, CBZ SJS/TEN (HLA-DRB1*1202): 35 (83.3%) | HLA-B*4601 carriers among patients with milder reactions to CBZ (HLA-B*4601; 10 out of 16): 62.5% | HLA-B*4601 carriers in the CBZ-tolerant group (HLA-B*4601; 19/73): 26% | odds ratio, B*4601, CBZ-induced milder cutaneous ADRs (HLA-B*4601; vs CBZ-tolerant group): 4.73 | HLA-Cw*0806 frequency, CBZ SJS/TEN (HLA-Cw*0806): 3 (7.1%) | HLA-Cw*0806 frequency, CBZ Tolerant (HLA-Cw*0806): 0 (0%) | HLA-B*1502 frequency, CBZ-tolerant patients (HLA-B*1502; N = 73, carriers, number (%)): 3 (4.1%) | HLA-B*1502 frequency, patients with CBZ-induced SJS/TEN (HLA-B*1502; Taiwanese patients, N = 42, carriers, number (%)): 42 (100%) | HLA-B*1502 frequency, CBZ Milder ADRs (HLA-B*1502; n = 16, carriers, number (%)): 0 (0%) | HLA-B*1502 carriers among SJS/TEN patients who received the drug (HLA-B*1502; text of Example 3): 100% | HLA-B*1502 carriers in the drug-tolerant group (HLA-B*1502; text of Example 3): 4.1% | negative predictive value of B*1502 for CBZ-induced SJS/TEN (HLA-B*1502; tolerant group as control): 100% | positive predictive value of B*1502 for CBZ-induced SJS/TEN (HLA-B*1502; tolerant group as control): 96.0% | sensitivity of B*1502 for CBZ-induced SJS/TEN (HLA-B*1502; tolerant group as control): 100% | specificity of B*1502 for CBZ-induced SJS/TEN (HLA-B*1502; tolerant group as control): 95.89% | Odds Ratio, B*1502, CBZ-induced SJS/TEN (HLA-B*1502; vs Controls1: patients who had milder ADRs other than SJS, N = 142): 1194.47 | Odds Ratio, B*1502, CBZ-induced SJS/TEN (HLA-B*1502; vs Controls2: general Taiwanese population, N = 94): 1383.2 | Odds Ratio, B*1502, CBZ-induced SJS/TEN (HLA-B*1502; vs Controls3: CBZ-tolerant patients, N = 73): 1712
